Experimental data taken from patent US8288387B2, “Napthalimide-benzimidazole hybrids as potential antitumor agents and process for the preparation thereof” (Council of Scientific & Industrial Research, priority 2008, dated 2012).

Legend:
[1] = system: K-562; test: NCI in vitro anticancer SRB assay, K-562; type: cell-based, human; conditions: Homo sapiens, K562, K-562, Leukemia
Description: (§1) Anticancer activity: In vitro biological activity studies were carried out at the National Cancer Institute (USA).
(§2) The compounds 5a-b evaluated for in vitro anticancer activity against sixty human tumour cells derived from nine cancer types (leukemia, non-small-cell lung, colon, CNS, melanoma, ovarian, prostate, and breast cancer) as shown in Table 1. For each compound, dose response curves for each cell line were measured at a minimum of five concentrations at 10 fold dilutions. A protocol of 48 h continuous drug exposure was used and a sulforhodamine B (SRB) protein assay was used to estimate cell viability or growth. The concentration causing 50% cell growth inhibition (GI50), total cell growth inhibition (TGI 0% growth) and 50% cell death (LC50, −50% growth) compared with the control was calculated. […] The MG MID of log TGI and log LC50 have shown similar pattern to the log GI50 MG MID. The other compounds 9a-c evaluated for in vitro one dose anticancer activity against nine human tumor cell panels containing sixty cell lines in percent growth inhibition values are listed in Table 3.

[2] = system: EKVX; test: NCI in vitro anticancer SRB assay, EKVX; type: cell-based, human; conditions: Homo sapiens, Non-Small Cell Lung Cancer
Description: as §1, §2

[3] = system: NCI-H322M; test: NCI in vitro anticancer SRB assay, NCI-H322M; type: cell-based, human; conditions: Homo sapiens, Non-Small Cell Lung Cancer
Description: as §1, §2

[4] = system: HCT-116; test: NCI in vitro anticancer SRB assay, HCT-116; type: cell-based, human; conditions: Homo sapiens, HCT-116, Colon Cancer
Description: as §1, §2

[5] = system: KM12; test: NCI in vitro anticancer SRB assay, KM12; type: cell-based, human; conditions: Homo sapiens, KM12, Colon Cancer
Description: as §1, §2

[6] = system: SW-620; test: NCI in vitro anticancer SRB assay, SW-620; type: cell-based, human; conditions: Homo sapiens, SW-620, Colon Cancer
Description: as §1, §2

[7] = system: SF-539; test: NCI in vitro anticancer SRB assay, SF-539; type: cell-based, human; conditions: Homo sapiens, SF-539, CNS Cancer
Description: as §1, §2

[8] = system: SNB-75; test: NCI in vitro anticancer SRB assay, SNB-75; type: cell-based; conditions: Homo sapiens, SNB-75, CNS Cancer
Description: as §1, §2

[9] = system: U251; test: NCI in vitro anticancer SRB assay, U251; type: cell-based, human; conditions: Homo sapiens, U-251, U251, CNS Cancer
Description: as §1, §2

[10] = system: MALME-3M; test: NCI in vitro anticancer SRB assay, MALME-3M; type: cell-based, human; conditions: Homo sapiens, Melanoma
Description: as §1, §2

[11] = system: SK-MEL-28; test: NCI in vitro anticancer SRB assay, SK-MEL-28; type: cell-based, human; conditions: Homo sapiens, SK-MEL-28, Melanoma
Description: as §1, §2

[12] = system: SK-MEL-5; test: NCI in vitro anticancer SRB assay, SK-MEL-5; type: cell-based, human; conditions: Homo sapiens, SK-MEL-5, Melanoma
Description: as §1, §2

[13] = system: OVCAR-4; test: NCI in vitro anticancer SRB assay, OVCAR-4; type: cell-based, human; conditions: Homo sapiens, OVCAR-4, Ovarian Cancer
Description: as §1, §2

[14] = system: 786-0; test: NCI in vitro anticancer SRB assay, 786-0; type: cell-based, human; conditions: Homo sapiens, 786-0, Renal Cancer
Description: as §1, §2

[15] = system: RXF 393; test: NCI in vitro anticancer SRB assay, RXF 393; type: cell-based, human; conditions: Homo sapiens; RXF 393, Renal Cancer; repeat test values
Description: as §1, §2

[16] = system: DU 145; test: NCI in vitro anticancer SRB assay, DU 145; type: cell-based, human; conditions: Homo sapiens, DU 145, Prostate Cancer
Description: as §1, §2

[17] = system: MCF7; test: NCI in vitro anticancer SRB assay, MCF7; type: cell-based, human; conditions: Homo sapiens, MCF7, Breast Cancer
Description: as §1, §2

[18] = system: MDA-MB-231/ATCC; test: NCI in vitro anticancer SRB assay, MDA-MB-231/ATCC; type: cell-based, human; conditions: Homo sapiens, Breast Cancer
Description: as §1, §2

[19] = system: HS 578T; test: NCI in vitro anticancer SRB assay, HS 578T; type: cell-based, human; conditions: Homo sapiens, Breast Cancer
Description: as §1, §2

[20] = system: T-47D; test: NCI in vitro anticancer SRB assay, T-47D; type: cell-based, human; conditions: Homo sapiens, T47D, Breast Cancer
Description: as §1, §2

[21] = system: BT-549; test: NCI in vitro anticancer SRB assay, BT-549; type: cell-based, human; conditions: Homo sapiens; BT-549, Breast Cancer; repeat test values
Description: as §1, §2

[22] = system: sixty human tumour cells; test: In vitro cytotoxicity, mean graph midpoints over all cell lines; type: cell-based; conditions: mean graph midpoint
Description: as §1, §2

Which results are given for `CN1CCN(c2ccc3nc(-c4ccc(OCCCN5C(=O)c6cccc7cccc(c67)C5=O)cc4)[nH]c3c2)CC1` [Compound 5a, 2-{3-[4-(6-[4-methylpiperazino]2-benzimidazolyl)phenoxy]propyl}napthalimide]?
GI50 ([1]; 48 h drug exposure, SRB): 0.49 µM; GI50 ([1]; repeat test values): 1.58 µM; GI50 ([2]; 48 h drug exposure, SRB): 1.37 µM; GI50 ([2]; repeat test values): 1.83 µM; GI50 ([3]; 48 h drug exposure, SRB): 1.81 µM; GI50 ([3]; repeat test values): 1.64 µM; GI50 ([4]; 48 h drug exposure, SRB): 1.76 µM; GI50 ([4]; repeat test values): 1.64 µM; GI50 ([5]; 48 h drug exposure, SRB): 1.72 µM; GI50 ([5]; repeat test values): 2.03 µM; GI50 ([6]; 48 h drug exposure, SRB): 1.7 µM; GI50 ([6]; repeat test values): 1.83 µM; GI50 ([7]; 48 h drug exposure, SRB): 1.64 µM; GI50 ([7]; repeat test values): 1.86 µM; GI50 ([8]; 48 h drug exposure, SRB): 0.02 µM; GI50 ([8]; repeat test values): 1.77 µM; GI50 ([9]; 48 h drug exposure, SRB): 1.78 µM; GI50 ([9]; repeat test values): 1.97 µM; GI50 ([10]; 48 h drug exposure, SRB): 7.66 µM; GI50 ([10]; repeat test values): 2.56 µM; GI50 ([11]; 48 h drug exposure, SRB): 1.48 µM; GI50 ([11]; repeat test values): 1.8 µM; GI50 ([12]; 48 h drug exposure, SRB): 1.69 µM; GI50 ([12]; repeat test values): 1.6 µM; GI50 ([13]; 48 h drug exposure, SRB): 1.58 µM; GI50 ([13]; repeat test values): 1.85 µM; GI50 ([14]; 48 h drug exposure, SRB): 1.53 µM; GI50 ([14]; repeat test values): 1.74 µM; GI50 [15]: 10 µM; GI50 ([16]; 48 h drug exposure, SRB): 1.45 µM; GI50 ([16]; repeat test values): 1.74 µM; GI50 ([17]; 48 h drug exposure, SRB): 1.44 µM; GI50 ([17]; repeat test values): 1.5 µM; GI50 ([18]; 48 h drug exposure, SRB): 1.51 µM; GI50 ([18]; repeat test values): 1.41 µM; GI50 ([19]; 48 h drug exposure, SRB): 2.1 µM; GI50 ([19]; repeat test values): 2.11 µM; GI50 ([20]; 48 h drug exposure, SRB): 1.54 µM; GI50 ([20]; repeat test values): 2.66 µM; GI50 [21]: 4.8 µM; Log LC50 MG MID ([22]; log10 of drug concentration causing 50% cell death (−50%)): −4.20; Log TGI MG MID ([22]; log10 of drug concentration causing total cell growth inhibition (0% growth)): −4.80; Log GI50 MG MID ([22]; log10 of drug molar concentration causing 50% cell growth inhibition): −5.34; Log GI50 MG MID ([22]; repeated test values): −5.62; Log LC50 MG MID ([22]; repeated test values): −4.39; Log TGI MG MID ([22]; repeated test values): −5.08
